Test results published in PubChem BioAssay (NCI).
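Compound exposure: 48 hours, 5 concentrations, 96-well plates. TGI: concentration producing complete growth inhibition.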

Columns and labels:
Experiment in all cases: NCI anticancer screen, dose series, 48 h
786-0 renal = test system: 786-0 renal
A498 renal = test system: A498 renal
A549 NSCLC = test system: A549 NSCLC
ACHN renal = test system: ACHN renal
BT-549 breast = test system: BT-549 breast
CAKI-1 renal = test system: CAKI-1 renal
CCRF-CEM leukemia = test system: CCRF-CEM leukemia
COLO 205 colon = test system: COLO 205 colon
DU-145 prostate = test system: DU-145 prostate
EKVX NSCLC = test system: EKVX NSCLC
HCC-2998 colon = test system: HCC-2998 colon
HCT-116 colon = test system: HCT-116 colon
HCT-15 colon = test system: HCT-15 colon
HL-60(TB) leukemia = test system: HL-60(TB) leukemia
HOP-62 NSCLC = test system: HOP-62 NSCLC
HOP-92 NSCLC = test system: HOP-92 NSCLC
HS 578T breast = test system: HS 578T breast
HT29 colon = test system: HT29 colon
IGROV1 ovarian = test system: IGROV1 ovarian
K-562 leukemia = test system: K-562 leukemia
KM12 colon = test system: KM12 colon
LOX IMVI melanoma = test system: LOX IMVI melanoma
M14 melanoma = test system: M14 melanoma
MALME-3M melanoma = test system: MALME-3M melanoma
MCF7 breast = test system: MCF7 breast
MDA-MB-231 breast = test system: MDA-MB-231 breast
MDA-MB-435 = test system: MDA-MB-435
MDA-N = test system: MDA-N
MOLT-4 leukemia = test system: MOLT-4 leukemia
NCI-H226 lung = test system: NCI-H226 lung
NCI-H23 lung = test system: NCI-H23 lung
NCI-H460 lung = test system: NCI-H460 lung
NCI-H522 lung = test system: NCI-H522 lung
NCI/ADR-RES ovarian = test system: NCI/ADR-RES ovarian
OVCAR-3 ovarian = test system: OVCAR-3 ovarian
OVCAR-4 ovarian = test system: OVCAR-4 ovarian
OVCAR-5 ovarian = test system: OVCAR-5 ovarian
OVCAR-8 ovarian = test system: OVCAR-8 ovarian
PC-3 prostate = test system: PC-3 prostate
RPMI-8226 leukemia = test system: RPMI-8226 leukemia
RXF 393 renal = test system: RXF 393 renal
SF-268 CNS = test system: SF-268 CNS
SF-295 CNS = test system: SF-295 CNS
SF-539 CNS = test system: SF-539 CNS
SK-MEL-2 melanoma = test system: SK-MEL-2 melanoma
SK-MEL-28 melanoma = test system: SK-MEL-28 melanoma
SK-MEL-5 melanoma = test system: SK-MEL-5 melanoma
SK-OV-3 ovarian = test system: SK-OV-3 ovarian
SN12C renal = test system: SN12C renal
SNB-19 CNS = test system: SNB-19 CNS
SNB-75 CNS = test system: SNB-75 CNS
SR leukemia = test system: SR leukemia
SW-620 colon = test system: SW-620 colon
T-47D breast = test system: T-47D breast
TK-10 renal = test system: TK-10 renal
U251 CNS = test system: U251 CNS
UACC-257 melanoma = test system: UACC-257 melanoma
UACC-62 melanoma = test system: UACC-62 melanoma
UO-31 renal = test system: UO-31 renal

Structure (SMILES): CC(=O)c1c(SCCN2CCOCC2)n(-c2ccccc2)c(=S)n(-c2ccccc2)c1=O
- TGI (786-0 renal): 26.4 µM
- TGI (A498 renal): 26.1 µM
- TGI (A549 NSCLC): > 57.6 µM
- TGI (ACHN renal): 30.1 µM
- TGI (BT-549 breast): 43 µM
- TGI (CAKI-1 renal): > 52.3 µM
- TGI (CCRF-CEM leukemia): 32.5 µM
- TGI (COLO 205 colon): 41.8 µM
- TGI (DU-145 prostate): 22.7 µM
- TGI (EKVX NSCLC): > 76.3 µM
- TGI (HCC-2998 colon): 28.5 µM
- TGI (HCT-116 colon): 30.5 µM
- TGI (HCT-15 colon): 48.6 µM
- TGI (HL-60(TB) leukemia): 51.9 µM
- TGI (HOP-62 NSCLC): > 65 µM
- TGI (HOP-92 NSCLC): 30.5 µM
- TGI (HS 578T breast): > 100 µM
- TGI (HT29 colon): 52.9 µM
- TGI (IGROV1 ovarian): 34.6 µM
- TGI (K-562 leukemia): > 94.2 µM
- TGI (KM12 colon): > 54.8 µM
- TGI (LOX IMVI melanoma): 26 µM
- TGI (M14 melanoma): 30.2 µM
- TGI (MALME-3M melanoma): 58.6 µM
- TGI (MCF7 breast): 5.31 µM
- TGI (MDA-MB-231 breast): 37.1 µM
- TGI (MDA-MB-435): 33.6 µM
- TGI (MDA-N): 47.9 µM
- TGI (MOLT-4 leukemia): > 62.9 µM
- TGI (NCI-H226 lung): > 73.4 µM
- TGI (NCI-H23 lung): > 64.5 µM
- TGI (NCI-H460 lung): 60.7 µM
- TGI (NCI-H522 lung): 48.4 µM
- TGI (NCI/ADR-RES ovarian): > 100 µM
- TGI (OVCAR-3 ovarian): 29.3 µM
- TGI (OVCAR-4 ovarian): > 68.9 µM
- TGI (OVCAR-5 ovarian): > 100 µM
- TGI (OVCAR-8 ovarian): 39.5 µM
- TGI (PC-3 prostate): 32 µM
- TGI (RPMI-8226 leukemia): > 29.4 µM
- TGI (RXF 393 renal): 25.7 µM
- TGI (SF-268 CNS): 39.7 µM
- TGI (SF-295 CNS): > 100 µM
- TGI (SF-539 CNS): 43.9 µM
- TGI (SK-MEL-2 melanoma): 39.4 µM
- TGI (SK-MEL-28 melanoma): 57.8 µM
- TGI (SK-MEL-5 melanoma): 34.4 µM
- TGI (SK-OV-3 ovarian): > 74.2 µM
- TGI (SN12C renal): 34.4 µM
- TGI (SNB-19 CNS): > 55.2 µM
- TGI (SNB-75 CNS): > 55.1 µM
- TGI (SR leukemia): > 100 µM
- TGI (SW-620 colon): 49.9 µM
- TGI (T-47D breast): 55.5 µM
- TGI (TK-10 renal): 31.2 µM
- TGI (U251 CNS): > 57 µM
- TGI (UACC-257 melanoma): 29.2 µM
- TGI (UACC-62 melanoma): 29.5 µM
- TGI (UO-31 renal): 27.1 µM
